The values that follow come from PMC7796559, “Connecting the conformational behavior of cyclic octadepsipeptides with their ionophoric property and membrane permeability” (Organic & biomolecular chemistry, 2020).

Structures are written as SMILES. Like-named read-outs stand apart in the source and are kept apart here. Non-standard residues stand in square brackets, D forms with d. Residues, ends and D or L forms follow the SMILES beside them. dPhLac = O=C(O)[C@H](O)Cc1ccccc1; NMeL = CN[C@@H](CC(C)C)C(=O)O; dLac = C[C@@H](O)C(=O)O

One data set concerns nematodes. The conditions noted are these: cited from earlier work.
Data set [1] can be described thus: Site-to-site exchange rates from EXSY peaks in EASY-ROESY. Type of data set: physicochemical. The conditions noted are these: for kex / k1 / k2: EASY-ROESY, mixing time 100 ms, CDCl3; for k1 / k2: site-to-site exchange rate. How it is done:
Following ref. [76] and [77], site-to-site rates were determined in a straightforward way by taking the logarithm of matrix A = M × M0^−1 containing the volumes of cross- and diagonal peaks of the exchanging sites (Hα of Mle^2, Mle^6 and Mle^26) divided by their magnetic fraction M0 (i.e. the relative intensities of the corresponding resonances in the ^1H NMR spectrum) as an approximation of M(0): (1) M=e^Ltm×M0 (2) A=(IAA/M0AIAB/M0BIAC/M0CIBA/M0AIBB/M0BIBC/M0CICA/M0AICB/M0BICC/M0C) (3) 1/tmln(A)=(kBA+kCA−R1kABkACkBA−kAB−R10kBC0−kAC−R1)
L is the difference between the kinetic matrix K containing the site-to-site rate constants and the relaxation matrix R, tm is the mixing time used in the ROESY experiment, and Ri are the auto-relaxation rates of the exchanging sites in the symmetric (A) and asymmetric (B, C) conformations.
EXSY peak volumes extracted from the ROESY spectrum (shown schematically in Fig. 13) and the magnetic fractions in the 1H NMR spectrum are inserted in matrix A (eqn 4). Site-to-site rates are obtained by taking the logarithm of matrix A and dividing the result by the mixing time (0.1 s) (eqn 5): kAB = kAC = 0.09 s^−1 and kBA = kCA = 0.16 s^−1 (averaged rates). Calculations were carried out in Mathematica 12.0.[78] (4) A=(77.9/11.52/1.51.55/1.51.59/1236/1.50/1.51.75/10/1.5200/1.5) (5) 1/0.1ln(A)=(43.55240.090.100.1450.580.000.170.0048.9)

The nature of data set [2]: PAMPA with and without potassium salt. The data set is classed as in vitro ADME. To be noted: for recovery at 10 μM / Papp at 10 µM / Papp: PAMPA; for PAMPA permeability (in words): independent of the addition of potassium salt. How it is done:
PAMPA was performed using a 96-well filter donor plate with 0.45 μm hydrophobic Immobilon-P membrane supports (Millipore MAIPNTR10) and a 96-well Teflon acceptor plate (Millipore MSSACCEPTOR). The donor plate was prepared by applying 5 μL of 1% (w/v) soybean lecithin (90%, Alfa Aesar) in n-dodecane to each filter. The acceptor plate was prepared by addition of 300 μl of pH = 7.4 phosphate-buffered saline (PBS) with 5% DMSO to each well. Donor solutions composed of PBS with 5% DMSO, 10 μM carbamazepine standard, and 10 μM compound 1, 2 or 8 were prepared with and without additional KCl (0.27 mM or 100.27 mM K^+ concentration) before addition of 150 μl to each donor well, with all conditions run in quadruplicate. The donor plate was then loaded into the acceptor plate and was left in a sealed, damp chamber at 25 °C for approximately 17 hours (exact times recorded and used in calculation of Pe). The plates were then separated, and 100 μl of solution from each well was transferred to another plate for LC-MS analysis. Permeabilities were calculated identically to a previous study.[80]

Data set [3] in a line: Cation binding in apolar solvent (chloroform) by NMR. To be noted: CDCl3; solid KSCN and sonication (1) or saturated KSCN solution in D2O, phase separation (2). Type of data set: physicochemical. How it is done:
It is known that valinomycin, a cyclic dodecadepsipeptide, as well as some crown ethers can bind cations even in an apolar solvent.[59]–[61] This ability is an indirect evidence that the ion-bound complex may exist inside the membrane interior, i.e. that ion transport across a membrane is possible. To assess if the cyclic octadepsipeptides are also able to bind cations in an apolar solvent, KSCN was added to a solution of 1 in chloroform and sonicated for several hours.

The test system of a further data set is efflux transporter P-gp. Also noted: method as in PMID 25131706. The conditions noted are these: cited from earlier work.
Details of data set [4]: method as in PMID 26067057. To be noted: PAMPA; cited from earlier work. (In general: PAMPA measures passive passage across an artificial lipid membrane.)
The subject of a further data set is Caco-2. Also noted: method as in PMID 26067057, PMID 32121188. To be noted: cited from earlier work.
Details of data set [5]: method as in PMID 22138252, PMID 24061379. The conditions noted are these: cited from earlier work.
On the set-up of data set [6]: method as in PMID 22138252, PMID 24061379. The conditions noted are these: cited from earlier work. This is another data set of the same source.
The subject of a further data set is mycobacteria. Further details: method as in PMID 5879163. To be noted: cited from earlier work.
In the next data set the test system is ryanodine-binding. Further details: method as in PMID 20057513. The conditions noted are these: cited from earlier work.
[7] abbreviates: pH 7.4, PAMPA, + 100 mM KCl, read-out: Average Recovery Rate.
Setting [8] is: pH 7.4, PAMPA, without additional KCl, read-out: Average Recovery Rate.
[9] abbreviates: without additional KCl (0.27 mM K+), PBS pH 7.4 with 5% DMSO, 10 μM compound, approx. 17 hours, 25 °C, read-out: Average Permeability with standard deviation in brackets.
[10] abbreviates: worked example, mixing time 0.1 s.

On to `CC(C)CC1C(=O)OC(Cc2ccccc2)C(=O)N(C)C(CC(C)C)C(=O)OC(C)C(=O)N(C)C(CC(C)C)C(=O)OC(Cc2ccccc2)C(=O)N(C)C(CC(C)C)C(=O)OC(C)C(=O)N1C` (single isomer, unassigned) [enantiomer of PF1022A], for which the “Anthelmintic activity (in words)” value in the data set with nematodes is on record as “no anthelmintic activity”.
In the case of `CC(C)C[C@H]1C(=O)O[C@H](Cc2ccccc2)C(=O)N(C)[C@@H](CC(C)C)C(=O)O[C@H](C)C(=O)N(C)N(CC(C)C)C(=O)O[C@H](Cc2ccccc2)C(=O)N(C)N(CC(C)C)C(=O)O[C@H](C)C(=O)N1C` [Bis-aza analog (8)], in [1], the kex was determined as 0.19 s⁻¹, the k1 is 0.17 s⁻¹ and the k2 was 0.02 s⁻¹. Also, the “Biological activity weaker by a factor compared to 1” value in the data set on nematodes is reported as 5–10. The recovery at 10 μM in data set [2] (setting [7]) was found to be 6.8%. Further, the recovery at 10 μM in [2] (setting [8]) was determined as 26.2%. The Papp at 10 µM in [2] (setting [9]) amounted to 0.08 ×10⁻⁶ cm/s. For the same molecule, in data set [2], the “PAMPA permeability (in words)” value is “no permeability was detected”.
`NC(=O)N1c2ccccc2C=Cc2ccccc21` [Carbamazepine, carbamazepine, reference compound]: in [2] (pH 7.4, 10 μM standard in donor solutions, with and without 100 mM KCl, read-out: Permeability of PAMPA control), the Papp at 10 µM was 7.94 to 11.1 ×10⁻⁶ cm/s. Besides, in [2] (pH 7.4, 10 μM standard in donor solutions, with and without 100 mM KCl, read-out: Recovery rate of PAMPA control), the recovery at 10 μM was in the range of 85.4 to 200%.
Take `CC(C)C[C@H]1C(=O)O[C@H](Cc2ccc(N3CCOCC3)cc2)C(=O)N(C)[C@@H](CC(C)C)C(=O)O[C@H](C)C(=O)N(C)[C@@H](CC(C)C)C(=O)O[C@H](Cc2ccc(N3CCOCC3)cc2)C(=O)N(C)[C@@H](CC(C)C)C(=O)O[C@H](C)C(=O)N1C` [Emodepside (2), reference compound]: in [1], the kex was 0.18 s⁻¹, the k1 was found to be 0.12 s⁻¹ and the k2 was 0.06 s⁻¹. Besides, the “Conformation detected in chloroform after contact with KSCN” value in [3] is reported as “the symmetric conformation is present almost exclusively”. In addition, in the data set on nematodes, the “Anthelmintic activity relative to PF1022A (in words)” value is given as “increased anthelmintic activity”. The recovery at 10 μM in data set [2] (setting [7]) was 27.3%. Further, the recovery at 10 μM in data set [2] (setting [8]) was found to be 78.7%. Besides, the “PAMPA permeability (in words)” value in data set [2] is recorded as “no permeability was detected”. Further, the “Substrate of the efflux transporter P-gp” value with efflux transporter P-gp is reported as “substrate”.
Turning to `CC(C)[C@H]1C(=O)O[C@H](C(C)C)C(=O)N(C)[C@@H](C(C)C)C(=O)O[C@H](C(C)C)C(=O)N(C)[C@@H](C(C)C)C(=O)O[C@H](C(C)C)C(=O)N1C` [Enniatin B, enniatin B], the “log Pe” value in data set [4] is reported as −4.73. Besides, in the data set with Caco-2, the “Permeability in Caco-2 permeability assay” value was 610 ×10⁻⁶ cm/s.
In data set [1], `CC(C)C[C@H]1C(=O)O[C@H](Cc2ccc(I)cc2)C(=O)N(C)[C@@H](CC(C)C)C(=O)O[C@H](C)C(=O)N(C)[C@@H](CC(C)C)C(=O)O[C@H](Cc2ccccc2)C(=O)N(C)[C@@H](CC(C)C)C(=O)O[C@H](C)C(=O)N1C` [Mono-iodo analog (11)] yielded a kex of 0.26 s⁻¹, a k1 of 0.17 s⁻¹ and a k2 of 0.09 s⁻¹.
Turning to `CC(C)CC1C(=O)OC(Cc2ccccc2)C(=O)N(C)C(CC(C)C)C(=O)OC(C)C(=O)N(C)C(CC(C)C)C(=O)OC(Cc2ccccc2)C(=O)N(C)C(CC(C)C)C(=O)OC(C)C(=O)N1C` (stereo not drawn) [PF1022A (1)], in [1], the kex came to 0.25 s⁻¹, the k1 turned out to be 0.16 s⁻¹ and the k2 came out at 0.09 s⁻¹. For the same molecule, in data set [1] (setting [10]), the “kAB = kAC (averaged site-to-site rate)” value worked out at 0.09 s⁻¹ and the “kBA = kCA (averaged site-to-site rate)” value is 0.16 s⁻¹. Also, in data set [3], the “Conformation detected in chloroform after contact with KSCN” value is listed as “only the symmetric conformation could be detected”. The Papp in data set [2] (pH 7.4, PAMPA, + 100 mM KCl (100.27 mM K+), PBS pH 7.4 with 5% DMSO, 10 μM compound, approx. 17 hours, 25 °C, read-out: Average Permeability with standard deviation in brackets) came out at 0.02 ×10⁻⁶ cm/s. In [2] (setting [7]), the recovery at 10 μM was determined as 57.4%. In data set [2] (setting [8]), the recovery at 10 μM came to 18.4%. Also, the Papp in data set [2] (setting [9]) worked out at 0.06 ×10⁻⁶ cm/s. For the same molecule, the “PAMPA permeability (in words)” value in data set [2] was “no permeability was detected”.
Take `CC(C)C1OC(=O)C(C(C)C)N(C)C1=O` (stereo not drawn) [compound 3, 3,6-di-(propan-2-yl)-4-methyl-morpholine-2,5-dione]: in data set [5], the “Antioxidant activity (in words)” value is listed as “moderate”. For the same molecule, the “Antimicrobial activity (in words)” value in data set [6] is reported as “moderate”.
Regarding `CC(C)C[C@H]1C(=O)O[C@H](C(C)C)C(=O)N(C)[C@@H](CC(C)C)C(=O)O[C@H](C(C)C)C(=O)N1C` [compound 4, cyclo-(N-methyl L-leucine D-hydroxyisovaleric acid)2], the “Activity against mycobacteria (in words)” value in the data set with mycobacteria was “no activity”.
As for `CCCCC[C@H]1OC(=O)[C@H](C)N(C)C(=O)[C@@H](CCCCC)OC(=O)[C@H](C)N(C)C(=O)[C@@H](CCCCC)OC(=O)[C@H](C)N(C)C(=O)[C@@H](CCCCC)OC(=O)[C@H](C)N(C)C1=O` [compound 7, verticilide], the “Ryanodine binding (in words)” value in the data set on ryanodine-binding is listed as “ryanodine-binding inhibitor”.
For `CC(C)C[C@H]1C(=O)O[C@H](Cc2ccccc2)C(=O)N(C)[C@@H](CC(C)C)C(=O)O[C@H](C)C(=O)N(C)[C@@H](CC(C)C)C(=O)N2CCC[C@@H]2C(=O)N2CCC[C@H]2C(=O)O[C@H](C)C(=O)N1C` [compound 9] (cyclo([dLac][NMeL][dPhLac][NMeL][dLac][NMeL][dP]P)), the “Biological activity higher by a factor compared to 1” value with nematodes is reported as 2.
Regarding `CC(C)C[C@H]1C(=O)O[C@H](Cc2ccccc2)C(=S)N(C)[C@@H](CC(C)C)C(=O)O[C@H](C)C(=S)N(C)[C@@H](CC(C)C)C(=O)O[C@H](Cc2ccccc2)C(=S)N(C)[C@@H](CC(C)C)C(=O)O[C@H](C)C(=S)N1C` [compound 10], the “Activity increased (times) compared to 1” value in the data set with nematodes is given as 2.5.
